US5998596A, “Inhibition of protein kinase activity by aptameric action of oligonucleotides” (The United States of America as represented by the …)

What was measured:
p210^bcr-abl = experiment: Inhibition of p210bcr-abl immunoprecipitation by BCR directed antibody clone 7C6; format: binding, human; conditions: 10 μM ODN added to K562 cell lysate, antibody clone 7C6, Western for phosphotyrosine
Protocol: FIG. 9C. Inhibition of p210^bcr-abl immunoprecipitation by T-21. […] T-21 was added to the lysate from 1×10^6 K562 cells (lane 2) and p210^bcr-abl immunoprecipitated with the BCR directed antibody, clone 7C6; no ODN was added to the lysate immunoprecipitated in lane 1. After extensive washing, the immunoprecipitates were separated on a 7% SDS polyacrylamide gel, transferred to nitrocellulose, and probed with an anti-phosphotyrosine antibody. Data are representative of at least two separate experiments.
In experiments designed to test the specificity of BCR-AS, an ODN composed solely of thymidylic acid residues (T-21) i.e., 5' […] 3' (SEQ ID NO.: 12) was capable of interfering with p210^bcr-abl immunoprecipitation. […] From the data in FIG. 9A, one can calculate an IC50 of less than 1 μM. […] This apparent discrepancy appears to be due to the ability of T-21 to inhibit precipitation of p210^bcr-abl by the BCR-directed antibody, clone 7C6. […] Inhibition of p210^bcr-abl immunoprecipitation was not seen with the other ODNs used in this study (data now shown).

[1] = test system: p210^bcr-abl kinase in K562 cells; experiment: Immunoprecipitation kinase assay of p210bcr-abl from ODN treated K562 cells; format: cell-based, human; conditions: K562 cells treated with T-21 overnight, washed, calculated from FIG. 9A, read-out: IC50 of apparent reduction of p210^bcr-abl kinase activity
Protocol: (§1) Immunoprecipitation kinase assays of p210^bcr-abl p145^abl were performed as described, with modifications (15). Briefly, for p210^bcr-abl, 1 μg of anti-bcr antibody (clone 7C6, Oncogene Science, Uniondale, N.Y.) was added to lysates prepared from 0.5-1×10^6 K562 cells. For p145^abl, 1 μg of anti-c-abl antibody (clone 24-21), which binds to the C-terminal domain of p145^abl, was added to lysates prepared from 5×10^6 PC3M cells. After incubating 1 hour at 4° C., complexes were precipitated by incubating with protein A-Sepharose coated with rabbit anti-mouse immunoglobulin (Cappel Research Products, Durham, N.C.) for 30 minutes. The complexes were then washed as follows: ABL lysis buffer×2, PBS×1, and ABL assay buffer×1 (24 mM imidazole, pH 7.2, 1 mg/ml bovine serum albumin, and 10 mM MnCl). For p145^abl assays ABL assay buffer contained 20 mM MnCl. To access the activity of p210^bcr-abl on substrate phosphorylation, acid inactivated enolase (Sigma Chemical Co., St. Louis, Mo.) was added as described (15).
(§2) ODNs were added to kinase reaction buffers not more than 5 minutes prior to the addition of ATP. Reactions were initiated by the addition of [γ^-32 P] ATP (3000 Ci/mmole; Amersham Corp., Arlington Heights, Ill.) and quenched by the addition of 5× gel loading buffer and heating to 95° C. Kinase reactions were run for 1-10 minutes at room temperature, except for EGFR, p145^abl, and MAP kinase, which were run at 30° C. The products were then electrophoresed on SDS-polyacrylamide gels: 7% for p210^bcr-abl, EGFR, and PDGFR, 8% for p145^abl, 10% for src, lck, and cdc-2 kinase, and 12% for MAP kinase. Gels were dried and reaction products were visualized by direct autoradiography at -70° C. with Kodak X-OMAT AR film. To determine the inhibitory concentration 50, i.e., the concentration required to inhibit enzyme activity by 50% (IC50) and Ki values, gel slices containing the band of interest were excised and analyzed by Cerenkov counting.
The effects of ODN1 on a cellular system were assessed. […] After 3 days, cells were washed and p210^bcr-abl kinase activity was measured. […] Neither cellular p210^bcr-abl protein content nor cell growth was affected by ODN treatment (data not shown).

p210^bcr-abl kinase = experiment: Immunoprecipitation kinase assay of p210bcr-abl (autophosphorylation), ODN added to kinase reaction; format: biochemical, human; conditions: ODN at 1 μM added to the immunoprecipitated enzyme
Protocol: The p210^bcr-abl kinase, src kinase and cdc-2 kinase were immunoprecipitated from K562 cells. The p145^abl kinase was immunoprecipitated from PC3M cells, PDGF receptor kinase from 3T3 cells, and EGF receptor kinase from A431 cells. MAP kinase was utilized as a pure protein and lck kinase was immunoprecipitated from peripheral blood lymphocytes of a normal volunteer.
(§3) Cells were washed in phosphate buffered saline (PBS) and 0.5-5×10^6 cells were solubilized in 1 ml of the specified cell lysis buffers. Unless otherwise stated, all cell lysis buffers contained the following protease inhibitors: 20 μg/ml leupeptin, 1 μg/ml aprotinin, and 1 mM phenylmethylsulfonylfluroide. For p210^bcr-abl and […] immunoprecipitation, cells were lysed with ABL lysis buffer (25 mM imidazole, pH 7.2, 0.5% NP40, 50 mM NaCl, 1 mM Na3 VO4) and lysates were clarified at 14,000 g. 4° C. for 30 minutes. Cell lysis for all other proteins was performed according to the references describing the various immunoprecipitation kinase assays.
as §1, §2

[2] = target: p145 ABL tyrosine kinase (c-Abl) (UniProt P00519 P00519:1-1130); experiment: inhibition; 20 mM Mn, 30 C; conditions: tags: immunoprecipitated from PC3M cells with anti-c-abl clone 24-21
Protocol: as §3, with “0.5–5×10^6” for “0.5-5×10^6”, “µg/ml” for “μg/ml”, “Na_3VO_4)” for “Na3 VO4)”
Immunoprecipitation kinase assays of p210^bcr-abl p145^abl were performed as described, with modifications (15). Briefly, for p210^bcr-abl, 1 µg of anti-bcr antibody (clone 7C6, Oncogene Science, Uniondale, N.Y.) was added to lysates prepared from 0.5–1×10^6 K562 cells. For p145^abl, 1 µg of anti-c-abl antibody (clone 24-21), which binds to the C-terminal domain of p145^abl, was added to lysates prepared from 5×10^6 PC3M cells. After incubating 1 hour at 4° C., complexes were precipitated by incubating with protein A-Sepharose coated with rabbit anti-mouse immunoglobulin (Cappel Research Products, Durham, N.C.) for 30 minutes. […]

Chain of p145 ABL tyrosine kinase (c-Abl) (P00519 whole entry, one chain of several): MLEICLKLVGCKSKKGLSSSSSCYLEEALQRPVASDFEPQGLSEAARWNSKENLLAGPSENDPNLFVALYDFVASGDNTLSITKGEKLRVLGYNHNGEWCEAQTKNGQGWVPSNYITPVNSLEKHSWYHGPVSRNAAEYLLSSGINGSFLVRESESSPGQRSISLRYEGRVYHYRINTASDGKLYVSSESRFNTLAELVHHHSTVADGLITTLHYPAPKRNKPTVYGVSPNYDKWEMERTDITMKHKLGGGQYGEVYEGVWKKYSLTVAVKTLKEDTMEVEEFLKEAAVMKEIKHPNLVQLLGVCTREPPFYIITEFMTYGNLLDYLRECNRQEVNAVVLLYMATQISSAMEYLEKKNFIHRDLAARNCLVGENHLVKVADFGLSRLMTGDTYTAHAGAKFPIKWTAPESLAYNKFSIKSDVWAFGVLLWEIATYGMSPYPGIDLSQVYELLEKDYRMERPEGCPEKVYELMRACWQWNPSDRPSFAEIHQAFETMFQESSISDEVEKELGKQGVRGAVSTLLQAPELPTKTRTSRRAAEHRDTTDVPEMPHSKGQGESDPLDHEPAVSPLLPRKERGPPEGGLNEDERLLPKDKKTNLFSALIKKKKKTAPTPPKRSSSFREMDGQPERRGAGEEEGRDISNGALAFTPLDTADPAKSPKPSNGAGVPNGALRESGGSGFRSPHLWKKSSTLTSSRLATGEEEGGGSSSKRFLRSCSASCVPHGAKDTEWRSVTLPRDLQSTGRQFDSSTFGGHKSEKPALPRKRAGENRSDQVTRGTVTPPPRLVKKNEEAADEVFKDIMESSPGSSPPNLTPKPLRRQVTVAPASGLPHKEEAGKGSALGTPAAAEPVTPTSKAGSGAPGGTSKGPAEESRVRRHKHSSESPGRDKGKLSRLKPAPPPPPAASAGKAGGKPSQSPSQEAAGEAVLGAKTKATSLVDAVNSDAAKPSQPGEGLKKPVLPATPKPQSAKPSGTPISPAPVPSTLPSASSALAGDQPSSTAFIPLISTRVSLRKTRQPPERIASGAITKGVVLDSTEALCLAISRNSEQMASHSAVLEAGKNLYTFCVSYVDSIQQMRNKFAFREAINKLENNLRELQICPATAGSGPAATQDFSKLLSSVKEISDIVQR

Row | Molecule | inhibition of p210^bcr-abl immunoprecipitation (p210^bcr-abl) | IC50 [1] [nM] | inhibition of p210^bcr-abl kinase activity in vitro (in words) (p210^bcr-abl kinase) | IC50 [2] [nM]
1 | 5' TTTTTTTTTTTTTTTTTTTTT 3' (chemistry not given here) [T-21, a 21mer composed solely of thymidylic acid residues] | nearly total inhibition | < 1000 | only moderate inhibition | 
2 | GTCCACCATGGCGCGGCCGGC (ssDNA, PS, two linkages at each of 5' and 3' ends, rest phosphodiester) [ODN1 (BCR-AS), phosphorothioate capped] |  |  |  | 620
